Data published in the supplement of paper PMC11061612.

How the values were obtained:
[1] = test system: LB771-HNC (Head and Neck Carcinoma); assay: Bliss excess, mean over the matrix (fraction); higher = more synergy
Outline: (§1)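 Cell lines grown in DMEM/F12 or RPMI with 10% FBS were plated in 1536-well plates and held 24 hours at 37°C, 5% CO2 before 72 hours of exposure to two-drug dose matrices, with DMSO typically at 0.2%. CellTiter-Glo 2.0 luminescence gave viability, which was converted to inhibition. Vehicle wells were set to 0 and blank wells to 1. Combination Emax is the second-highest inhibition in the matrix, and Bliss excess is the observed combination effect minus the expected EA + EB − EA·EB, where EA and EB are the single-agent effects.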

[2] = test system: HARA (Squamous Cell Lung Carcinoma); assay: as above
Outline: as §1

[3] = test system: CAL-54 (Kidney Carcinoma); assay: as above
Outline: as §1

[4] = test system: CAPAN-1 (Pancreatic Carcinoma); assay: as above
Outline: as §1

[5] = test system: SUP-T1 (T-Lymphoblastic Leukemia); assay: combination Emax (second highest fraction inhibited in the dose matrix, 72 h); higher = more inhibition; extreme values may be limits of the assay
Outline: as §1

[6] = test system: NCI-H69 (Small Cell Lung Carcinoma); assay: as above
Outline: as §1

[7] = test system: KYSE-410 (Esophageal Squamous Cell Carcinoma); assay: as above
Outline: as §1

[8] = test system: TE-4 (Esophageal Squamous Cell Carcinoma); assay: as above
Outline: as §1

[9] = test system: RT-112 (Bladder Carcinoma); assay: as above
Outline: as §1

[10] = test system: NCI-H747 (Colorectal Carcinoma); assay: as above
Outline: as §1

[11] = test system: HDLM-2 (Hodgkin's Lymphoma); assay: as above
Outline: as §1

NCI-H28 (Mesothelioma) = assay: as above
Outline: as §1

[12] = test system: UMC-11 (Other Solid Carcinomas); assay: as above
Outline: as §1

[13] = test system: RPMI-6666 (Non-Cancerous); assay: as above
Outline: as §1

[14] = test system: HCC-15 (Squamous Cell Lung Carcinoma); assay: as above
Outline: as §1

[15] = test system: OVCAR-8 (Ovarian Carcinoma); assay: as above
Outline: as §1

[16] = test system: RKO (Colorectal Carcinoma); assay: as above
Outline: as §1

NB14 (Neuroblastoma) = assay: as above
Outline: as §1

[17] = test system: 8305C (Thyroid Gland Carcinoma); assay: as above
Outline: as §1

[18] = test system: SK-OV-3 (Ovarian Carcinoma); assay: as above
Outline: as §1
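Throughout, for Bliss excess, mean over the matrix: after 72 h of two-drug dosing.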

`CC1(C)CCC(CN2CCN(c3ccc(C(=O)NS(=O)(=O)c4ccc(NCC5CCOCC5)c([N+](=O)[O-])c4)c(Oc4cnc5[nH]ccc5c4)c3)CC2)=C(c2ccc(Cl)cc2)C1` [Venetoclax] + C[C@@H](Nc1cc(F)cc(F)c1)c1cc(C(=O)N(C)C)cc2c(=O)cc(N3CCOCC3)oc12 [AZD8186] (first compound max 1 µM, 7x7, partner max 3 µM) gave a Bliss excess [1] of 0.0083, a Bliss excess [2] of 0.0144 and a Bliss excess [3] of 0.0021. The Bliss excess [4] was -0.0594, the “combination Emax” value [5] was 0.461 and the “combination Emax” value [6] was 0.697. The “combination Emax” value [7] was 0.172, the “combination Emax” value [8] was 0.0248 and the “combination Emax” value [9] was 0.472. The “combination Emax” value [10] was 0.344, the “combination Emax” value [11] was 0.436 and the “combination Emax” value (NCI-H28 (Mesothelioma)) was 0.115. The “combination Emax” value [12] was 0.143, the “combination Emax” value [13] was 0.988 and the “combination Emax” value [14] was 0.173. For the same compound, the “combination Emax” value [15] was 0.139, the “combination Emax” value [16] was 0.113 and the “combination Emax” value (NB14 (Neuroblastoma)) was 1. The “combination Emax” value [17] was 0.441 and the “combination Emax” value [18] was 0.433.

`CC1(C)CCC(CN2CCN(c3ccc(C(=O)NS(=O)(=O)c4ccc(NCC5CCOCC5)c([N+](=O)[O-])c4)c(Oc4cnc5[nH]ccc5c4)c3)CC2)=C(c2ccc(Cl)cc2)C1` [Venetoclax] + Cc1cc2ncnn2cc1Nc1ncc2c(n1)n(C1CCOCC1)c(=O)n2C [AZD7648] (first compound max 1 µM, 7x7, partner max 10 µM) showed a Bliss excess [1] of -0.006, a Bliss excess [2] of -0.03 and a Bliss excess [3] of -0.0295. For the same compound, the Bliss excess [4] was -0.0196, the “combination Emax” value [5] was 0.602 and the “combination Emax” value [6] was 0.657. The “combination Emax” value [7] was 0.23, the “combination Emax” value [8] was 0.228 and the “combination Emax” value [9] was 0.257. For the same compound, the “combination Emax” value [10] was 0.414, the “combination Emax” value [11] was 0.431 and the “combination Emax” value (NCI-H28 (Mesothelioma)) was 0.216. For the same compound, the “combination Emax” value [12] was 0.414, the “combination Emax” value [13] was 0.959 and the “combination Emax” value [14] was 0.253. For the same compound, the “combination Emax” value [15] was 0.229, the “combination Emax” value [16] was 0.275 and the “combination Emax” value (NB14 (Neuroblastoma)) was 0.974. For the same compound, the “combination Emax” value [17] was 0.385 and the “combination Emax” value [18] was 0.353.

`CC1(C)CCC(CN2CCN(c3ccc(C(=O)NS(=O)(=O)c4ccc(NCC5CCOCC5)c([N+](=O)[O-])c4)c(Oc4cnc5[nH]ccc5c4)c3)CC2)=C(c2ccc(Cl)cc2)C1` [Venetoclax] + Cn1cnc2c(F)c(Nc3ccc(Br)cc3Cl)c(C(=O)NOCCO)cc21 [Selumetinib] (first compound max 1 µM, 7x7, partner max 3 µM) showed a Bliss excess [1] of -0.0555, a Bliss excess [2] of -0.0084 and a Bliss excess [3] of -0.0466. For the same compound, the Bliss excess [4] was -0.057, the “combination Emax” value [5] was 0.426 and the “combination Emax” value [6] was 0.302. For the same compound, the “combination Emax” value [7] was 0.222, the “combination Emax” value [8] was 0.114 and the “combination Emax” value [9] was 0.304. For the same compound, the “combination Emax” value [10] was 0.717, the “combination Emax” value [11] was 0.296 and the “combination Emax” value (NCI-H28 (Mesothelioma)) was 0.142. For the same compound, the “combination Emax” value [12] was 0.17, the “combination Emax” value [13] was 0.959 and the “combination Emax” value [14] was 0.438. For the same compound, the “combination Emax” value [15] was 0.153, the “combination Emax” value [16] was 0.441 and the “combination Emax” value (NB14 (Neuroblastoma)) was 0.974. For the same compound, the “combination Emax” value [17] was 0.397 and the “combination Emax” value [18] was 0.137.
